According to ChEMBL document CHEMBL1275314, “Synthesis and biological evaluation of some 1,3,4-oxadiazole derivatives” (Eur J Med Chem, 2010):
Values after ≈ are worked out from the molar mass of the structure shown.

Legend:
Type in all cases: functional
[1] = tested on: Klebsiella pneumoniae; assay: Antibacterial activity against Klebsiella pneumoniae after 3 to 4 days by serial plate dilution method
[2] = tested on: Staphylococcus aureus; assay: Antibacterial activity against Staphylococcus aureus ATCC 25923 after 3 to 4 days by serial plate dilution method
[3] = tested on: Trichophyton mentagrophytes; assay: Antifungal activity against Trichophyton mentagrophytes after 3 to 4 days by serial plate dilution method
[4] = tested on: Escherichia coli; assay: Antibacterial activity against Escherichia coli ATCC 25922 after 3 to 4 days by serial plate dilution method
[5] = tested on: Talaromyces marneffei; assay: Antifungal activity against Penicillium marneffei after 3 to 4 days by serial plate dilution method
[6] = tested on: Aspergillus fumigatus; assay: Antifungal activity against Aspergillus fumigatus NCIM 902 after 3 to 4 days by serial plate dilution method
[7] = tested on: Aspergillus flavus; assay: Antifungal activity against Aspergillus flavus NCIM 524 after 3 to 4 days by serial plate dilution method
[8] = tested on: Pseudomonas aeruginosa; assay: Antibacterial activity against Pseudomonas aeruginosa ATCC 27853 after 3 to 4 days by serial plate dilution method
[9] = tested on: Mus musculus; assay: Analgesic activity in Swiss albino mouse assessed as inhibition of heat-induced paw licking or jumping behavior at 10 mg/kg, po administered after 15 sec of heat challenge measured after 60 mins post dose by Eddy's hot plate method; conditions: 1 h
[10] = tested on: Mus musculus; assay: Analgesic activity in Swiss albino mouse assessed as inhibition of heat-induced paw licking or jumping behavior at 10 mg/kg, po administered after 15 sec of heat challenge measured after 30 mins post dose by Eddy's hot plate method; conditions: 0.5 h
[11] = tested on: Rattus norvegicus; assay: Antiinflammatory activity in Wister albino rat assessed as inhibition of carrageenan-induced paw edema at 10 mg/kg, po administered 30 mins before carrageenan treatment measured after 3 hrs by plethysmometric analysis
[12] = tested on: Mus musculus; assay: Analgesic activity in Swiss albino mouse assessed as inhibition of heat-induced paw licking or jumping behavior at 10 mg/kg, po administered after 15 sec of heat challenge measured after 90 mins post dose by Eddy's hot plate method; conditions: 1.5 h

| Structure (SMILES) | MIC [1] [µg/mL] | MIC [2] [µg/mL] | MIC [3] [µg/mL] | MIC [4] [µg/mL] | MIC [5] [µg/mL] | MIC [6] [µg/mL] | MIC [7] [µg/mL] | MIC [8] [µg/mL] | inhibition in vivo at 10 mg/kg [9] [%] | inhibition in vivo at 10 mg/kg [10] [%] | inhibition in vivo at 10 mg/kg [11] [%] | inhibition in vivo at 10 mg/kg [12] [%] |
| --- | --- | --- | --- | --- | --- | --- | --- | --- | --- | --- | --- | --- |
| CCOC(=O)C1CCN(Cn2nc(C(C)c3ccc(CC(C)C)cc3)oc2=S)CC1 (configuration not stated) | 12.5 (≈ 29 µM) | 12.5 (≈ 29 µM) | 12.5 (≈ 29 µM) | 12.5 (≈ 29 µM) | 12.5 (≈ 29 µM) | 12.5 (≈ 29 µM) | 12.5 (≈ 29 µM) | 12.5 (≈ 29 µM) | 41.8 | 30.6 | 73.9 | 55.2 |
| COc1ccc(N2CCN(Cn3nc(C(C)c4ccc(CC(C)C)cc4)oc3=S)CC2)cc1 (configuration not stated) | 6.25 (≈ 13.4 µM) | 6.25 (≈ 13.4 µM) | 12.5 (≈ 26.8 µM) | 6.25 (≈ 13.4 µM) | 12.5 (≈ 26.8 µM) | 12.5 (≈ 26.8 µM) | 12.5 (≈ 26.8 µM) | 6.25 (≈ 13.4 µM) | – | – | 42.6 | – |
| CC(C)Cc1ccc(C(C)c2nn(CN3CCN(c4ccc(Cl)cc4)CC3)c(=S)o2)cc1 (configuration not stated) | 12.5 (≈ 26.5 µM) | 12.5 (≈ 26.5 µM) | 12.5 (≈ 26.5 µM) | 12.5 (≈ 26.5 µM) | 12.5 (≈ 26.5 µM) | 12.5 (≈ 26.5 µM) | 12.5 (≈ 26.5 µM) | 12.5 (≈ 26.5 µM) | 28 | 22.8 | 76.6 | 35.8 |
| Cc1cc(C2CCCCC2)n(O)c(=O)c1.NCCO [CICLOPIROX OLAMINE] | – | – | 6.25 | – | 1.56 | 6.25 | 6.25 | – | – | – | – | – |
| O=C(O)c1cn(C2CC2)c2cc(N3CCNCC3)c(F)cc2c1=O [CIPROFLOXACIN] | 6.25 (≈ 18.9 µM) | 1.56 (≈ 4.71 µM) | – | – | – | – | – | – | – | – | – | – |
| O=C(O)Cc1ccccc1Nc1c(Cl)cccc1Cl [DICLOFENAC SODIUM] | – | – | – | – | – | – | – | – | 40.8 | 29.2 | 73.7 | 53.6 |

More lines, main results first:

| MIC [1] [µg/mL] | MIC [2] [µg/mL] | MIC [3] [µg/mL] | MIC [4] [µg/mL] | MIC [5] [µg/mL] | MIC [6] [µg/mL] | MIC [7] [µg/mL] | MIC [8] [µg/mL] | Structure (SMILES) | inhibition in vivo at 10 mg/kg [9] [%] | inhibition in vivo at 10 mg/kg [10] [%] | inhibition in vivo at 10 mg/kg [11] [%] | inhibition in vivo at 10 mg/kg [12] [%] |
| --- | --- | --- | --- | --- | --- | --- | --- | --- | --- | --- | --- | --- |
| 25 (≈ 69.5 µM) | 25 (≈ 69.5 µM) | 25 (≈ 69.5 µM) | 25 (≈ 69.5 µM) | 25 (≈ 69.5 µM) | 25 (≈ 69.5 µM) | 25 (≈ 69.5 µM) | 25 (≈ 69.5 µM) | CC(C)Cc1ccc(C(C)c2nn(CN3CCCCC3)c(=S)o2)cc1 (configuration not stated) | – | – | – | – |
| 6.25 (≈ 17.3 µM) | 6.25 (≈ 17.3 µM) | 6.25 (≈ 17.3 µM) | 6.25 (≈ 17.3 µM) | 6.25 (≈ 17.3 µM) | 6.25 (≈ 17.3 µM) | 6.25 (≈ 17.3 µM) | 6.25 (≈ 17.3 µM) | CC(C)Cc1ccc(C(C)c2nn(CN3CCOCC3)c(=S)o2)cc1 (configuration not stated) | – | – | 69.5 | – |
| 12.5 (≈ 30.7 µM) | 12.5 (≈ 30.7 µM) | 12.5 (≈ 30.7 µM) | 12.5 (≈ 30.7 µM) | 12.5 (≈ 30.7 µM) | 12.5 (≈ 30.7 µM) | 12.5 (≈ 30.7 µM) | 12.5 (≈ 30.7 µM) | CCOC(=O)C1CCN(Cn2nc(Cc3ccc(SC)cc3)oc2=S)CC1 | – | – | 57.4 | – |
| 12.5 (≈ 37 µM) | 12.5 (≈ 37 µM) | 6.25 (≈ 18.5 µM) | 12.5 (≈ 37 µM) | 6.25 (≈ 18.5 µM) | 6.25 (≈ 18.5 µM) | 6.25 (≈ 18.5 µM) | 12.5 (≈ 37 µM) | CSc1ccc(Cc2nn(CN3CCOCC3)c(=S)o2)cc1 | – | – | 35.2 | – |
| 12.5 (≈ 37.1 µM) | 12.5 (≈ 37.1 µM) | 12.5 (≈ 37.1 µM) | 12.5 (≈ 37.1 µM) | 12.5 (≈ 37.1 µM) | 12.5 (≈ 37.1 µM) | 12.5 (≈ 37.1 µM) | 12.5 (≈ 37.1 µM) | CSc1ccc(Cc2nn(CN3CCNCC3)c(=S)o2)cc1 | – | – | – | – |
| 12.5 (≈ 35.7 µM) | 12.5 (≈ 35.7 µM) | 25 (≈ 71.3 µM) | 12.5 (≈ 35.7 µM) | 25 (≈ 71.3 µM) | 25 (≈ 71.3 µM) | 25 (≈ 71.3 µM) | 12.5 (≈ 35.7 µM) | CSc1ccc(Cc2nn(CN3CCN(C)CC3)c(=S)o2)cc1 | – | – | – | – |
| 12.5 (≈ 37.3 µM) | 12.5 (≈ 37.3 µM) | 25 (≈ 74.5 µM) | 12.5 (≈ 37.3 µM) | 25 (≈ 74.5 µM) | 25 (≈ 74.5 µM) | 25 (≈ 74.5 µM) | 12.5 (≈ 37.3 µM) | CSc1ccc(Cc2nn(CN3CCCCC3)c(=S)o2)cc1 | – | – | – | – |
